Molecular target: T1, human kinase Mps-1 (Homo sapiens, UniProt P33981)
T1 construct: human full length recombinant Mps-1 kinase; GST (N); purchased Invitrogen, Karslruhe, Germany PV4071
T1 sequence (P33981 1-857): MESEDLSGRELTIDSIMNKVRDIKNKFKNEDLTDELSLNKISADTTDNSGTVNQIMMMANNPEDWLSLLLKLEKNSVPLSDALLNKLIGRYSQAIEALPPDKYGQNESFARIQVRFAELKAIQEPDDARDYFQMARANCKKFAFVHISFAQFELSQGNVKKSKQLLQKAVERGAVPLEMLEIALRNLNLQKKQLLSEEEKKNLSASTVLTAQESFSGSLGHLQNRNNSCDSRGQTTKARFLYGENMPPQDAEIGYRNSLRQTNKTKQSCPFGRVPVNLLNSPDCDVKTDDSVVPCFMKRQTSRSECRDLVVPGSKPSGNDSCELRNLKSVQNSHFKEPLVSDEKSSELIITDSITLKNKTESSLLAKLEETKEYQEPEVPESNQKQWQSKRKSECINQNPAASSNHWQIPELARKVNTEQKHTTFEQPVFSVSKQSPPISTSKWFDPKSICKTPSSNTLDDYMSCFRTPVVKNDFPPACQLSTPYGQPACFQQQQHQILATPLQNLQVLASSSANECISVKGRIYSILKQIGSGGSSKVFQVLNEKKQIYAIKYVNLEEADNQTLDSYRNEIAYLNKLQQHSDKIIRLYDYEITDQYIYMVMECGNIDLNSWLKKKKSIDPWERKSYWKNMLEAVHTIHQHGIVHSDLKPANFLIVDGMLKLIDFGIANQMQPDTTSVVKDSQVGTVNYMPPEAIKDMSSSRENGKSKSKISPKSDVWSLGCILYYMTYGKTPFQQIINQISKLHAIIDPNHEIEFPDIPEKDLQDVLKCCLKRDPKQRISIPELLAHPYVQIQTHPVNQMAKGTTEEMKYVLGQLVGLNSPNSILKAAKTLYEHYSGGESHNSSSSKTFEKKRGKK
Test: Mps-1 kinase assay (TR-FRET)
Assay type: biochemical
Details: 10 μM ATP; read-out: Mps1 avg (IC50)
Procedure: The human kinase Mps-1 phosphorylates a biotinylated substrate peptide. Detection of the phosphorylated product is achieved by time-resolved fluorescence resonance energy transfer (TR-FRET) from Europium-labelled anti-phospho-Serine/Threonine antibody as donor to streptavidin labelled with cross-linked allophycocyanin (SA-XLent) as acceptor. Compounds are tested for their inhibition of the kinase activity.
N-terminally GST-tagged human full length recombinant Mps-1 kinase (purchased from Invitrogen, Karslruhe, Germany, cat. no PV4071) was used. […]
The resulting mixture was incubated 1 h at 22° C. to allow the binding of the phosphorylated peptide to the anti-phospho(Ser/Thr)-Europium-antibody. Subsequently the amount of phosphorylated substrate was evaluated by measurement of the resonance energy transfer from the Europium-labelled anti-phospho(Ser/Thr) antibody to the Streptavidin-XLent. Therefore, the fluorescence emissions at 620 nm and 665 nm after excitation at 350 nm was measured in a Viewlux TR-FRET reader (PerkinElmer LAS, Rodgau-Jügesheinn, Germany). The “blank-corrected normalized ratio” (a Viewlux specific readout, similar to the traditional ratio of the emissions at 665 nm and at […], in which blank and Eu-donor crosstalk are subtracted from the 665 nm signal before the ratio is calculated) was taken as the measure for the amount of phosphorylated substrate. […]

IC50: 16 µM
SMILES: Cc1noc(Nc2cnc(C(=O)NC3CCN(CC(F)F)CC3)cn2)c1C(=O)Nc1ccc(F)c(F)c1 [Example 1b, N-[1-(2,2-Difluoroethyl)piperidin-4-yl]-5-({4-[(3,4-difluorophenyl)carbamoyl]-3-methyl-1,2-oxazol-5-yl}amino)pyrazine-2-carboxamide]

— US20170217946A1, “AMINO-SUBSTITUTED ISOXAZOLES” (Bayer Pharma Aktiengesellschaft, priority 2014, published 2017)
